According to patent US8802597B2, “Herbicidal pyrimidines” (E I du Pont de Nemours and Company, priority 2003, dated 2014):
Like-named read-outs stand apart in the source and are kept apart here. Blank lines part the entries; values can stand above or below the compound they belong to.

Experiments:
[1] = tested on: corn (Zea mays); experiment: Test C pre/postemergence; assay type: in vivo; conditions: Zea mays; for Corn plant response rating (crop injury, 0 = no effect, 100 = complete kill) at 62 g/ha: 62 g ai/ha; for Corn plant response rating (crop injury, 0 = no effect, 100 = complete kill) at 125 g/ha: 125 g ai/ha; for Corn plant response rating (crop injury, 0 = no effect, 100 = complete kill) at 250 g/ha: 250 g ai/ha; for Corn plant response rating (crop injury, 0 = no effect, 100 = complete kill) at 500 g/ha: 500 g ai/ha; for Corn plant response rating (crop injury, 0 = no effect, 100 = complete kill) at 8 g/ha: 8 g ai/ha; for Corn plant response rating (crop injury, 0 = no effect, 100 = complete kill) at 16 g/ha: 16 g ai/ha
In short: (§1)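 Injury scored visually 12–14 days after application on 0–100 scale (100 = complete control), relative to controls. Compounds, formulated with surfactant in non-phytotoxic solvent, applied to soil at planting (pre) or to 1- to 4-leaf plants 2–18 cm tall (post) in greenhouse.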

[2] = tested on: morningglory (Ipomoea coccinea); experiment: Test C pre/postemergence; assay type: in vivo; conditions: Ipomoea; for pest or weed control at 62 g/ha: 62 g ai/ha; for pest or weed control at 125 g/ha: 125 g ai/ha; for pest or weed control at 250 g/ha: 250 g ai/ha; for pest or weed control at 500 g/ha: 500 g ai/ha; for pest or weed control at 8 g/ha: 8 g ai/ha; for pest or weed control at 31 g/ha: 31 g ai/ha
In short: as §1

[3] = tested on: woolly cupgrass (Eriochloa villosa); experiment: Test C pre/postemergence; assay type: in vivo; conditions: Eriochloa villosa; for pest or weed control at 62 g/ha: 62 g ai/ha; for pest or weed control at 125 g/ha: 125 g ai/ha; for pest or weed control at 250 g/ha: 250 g ai/ha; for pest or weed control at 500 g/ha: 500 g ai/ha; for pest or weed control at 8 g/ha: 8 g ai/ha; for pest or weed control at 16 g/ha: 16 g ai/ha; for pest or weed control at 31 g/ha: 31 g ai/ha
In short: as §1

[4] = tested on: umbrella sedge (Cyperus difformis); experiment: Test C flooded paddy test; assay type: in vivo; conditions: Flood, scale 0 to 100
In short: (§2)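 Response scores reflect visual evaluation after 12 to 14 days in the greenhouse, with 0 for no effect and 100 for complete control relative to untreated plants. Treatment was made at the 2-leaf stage in a flooded paddy setting, and a dash denotes no test result.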

[5] = tested on: barnyardgrass (Echinochloa crus-galli); experiment: Test C flooded paddy test; assay type: in vivo; conditions: Flood
In short: as §2

[6] = tested on: duck salad (Heteranthera limosa); experiment: Test C flooded paddy test; assay type: in vivo; conditions: Flood, scale 0 to 100
In short: as §2

[7] = tested on: rice (Oryza sativa); experiment: Test C flooded paddy test; assay type: in vivo; conditions: Flood, scale 0 to 100
In short: as §2

[8] = tested on: smallflower umbrella sedge (Cyperus difformis); experiment: Test E flooded paddy water application; assay type: in vivo; conditions: Flood, 21 days, scale 0 to 100 (0 no effect, 100 complete control)
In short: (§3)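 Response scored visually on a 0–100 scale (100 = complete control) at 21 days against untreated pots. Treatment was into paddy water 3 cm deep over silt loam, with plants at the 2.0–2.5-leaf stage, grown under 16-h light at 29.5/26.7 °C day/night.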

[9] = tested on: early watergrass (Echinochloa oryzoides); experiment: Test E flooded paddy water application; assay type: in vivo; conditions: Flood, 21 days, scale 0 to 100 (0 no effect, 100 complete control)
In short: as §3

[10] = tested on: water seeded rice seedlings (Oryza sativa cv. ‘Japonica-M202’); experiment: Test E flooded paddy water application; assay type: in vivo; conditions: Flood, 21 days, scale 0 to 100 (0 no effect, 100 complete control)
In short: as §3

[11] = tested on: junglerice (Echinochloa colona); experiment: Test E flooded paddy water application; assay type: in vivo; conditions: Flood, 21 days, scale 0 to 100 (0 no effect, 100 complete control)
In short: as §3

[12] = tested on: ducksalad (Heteranthera limosa); experiment: Test E flooded paddy water application; assay type: in vivo; conditions: Flood, 21 days, scale 0 to 100 (0 no effect, 100 complete control)
In short: as §3

[13] = post-emergence, Postemergence, scale 0 to 100 (0 no effect, 100 complete control), read-out: Corn plant response rating
[14] = post-emergence, Postemergence, scale 0 to 100
[15] = pre-emergence, Preemergence, scale 0 to 100, 0 no effect, 100 complete control, read-out: Plant response rating, Corn
[16] = pre-emergence, Preemergence, scale 0 to 100
[17] = post-emergence, Postemergence, scale 0 to 100 (0 no effect, 100 complete control), read-out: Morningglory plant response rating
[18] = post-emergence, Postemergence, scale 0 to 100, read-out: Plant response rating, Morningglory
[19] = pre-emergence, Preemergence, scale 0 to 100, 0 no effect, 100 complete control, read-out: Plant response rating, Morningglory
[20] = pre-emergence, Preemergence, scale 0 to 100, read-out: Plant response rating, Morningglory
[21] = post-emergence, Postemergence, scale 0 to 100 (0 no effect, 100 complete control), read-out: Cupgrass, Woolly plant response rating
[22] = post-emergence, Postemergence, scale 0 to 100, read-out: Plant response rating, Cupgrass, Woolly
[23] = pre-emergence, Preemergence, scale 0 to 100, 0 no effect, 100 complete control, read-out: Plant response rating, Cupgrass, Woolly
[24] = pre-emergence, Preemergence, scale 0 to 100, read-out: Plant response rating, Cupgrass, Woolly
[25] = post-emergence, Postemergence, read-out: Plant response rating (scale of 0 to 100), Corn
[26] = post-emergence, Postemergence, read-out: Plant response rating (scale of 0 to 100), Morningglory
[27] = post-emergence, Postemergence, read-out: Plant response rating (scale of 0 to 100), Cupgrass, Woolly

melting point: 107 to 108 °C
Structure (SMILES): CCOC(=O)c1nc(C2CC2)nc(N)c1Br [Compound 1, ethyl 6-amino-5-bromo-2-cyclopropyl-4-pyrimidinecarboxylate]
Corn plant response rating (crop injury, 0 = no effect, 100 = complete kill) at 62 g/ha [1, 13]: 10% | Corn plant response rating (crop injury, 0 = no effect, 100 = complete kill) at 125 g/ha [1, 13]: 15% | Corn plant response rating (crop injury, 0 = no effect, 100 = complete kill) at 250 g/ha [1, 14]: 40% | Corn plant response rating (crop injury, 0 = no effect, 100 = complete kill) at 500 g/ha [1, 14]: 45% | Corn plant response rating (crop injury, 0 = no effect, 100 = complete kill) at 62 g/ha [1, 15]: 0% | Corn plant response rating (crop injury, 0 = no effect, 100 = complete kill) at 125 g/ha ([1]; pre-emergence, Preemergence, scale 0 to 100, read-out: Plant response rating, Corn): 0% | Corn plant response rating (crop injury, 0 = no effect, 100 = complete kill) at 250 g/ha [1, 16]: 50% | Corn plant response rating (crop injury, 0 = no effect, 100 = complete kill) at 500 g/ha [1, 16]: 70% | pest or weed control at 62 g/ha [2, 17]: 100% | pest or weed control at 125 g/ha [2, 17]: 100% | pest or weed control at 250 g/ha [2, 18]: 100% | pest or weed control at 500 g/ha [2, 18]: 100% | pest or weed control at 62 g/ha [2, 19]: 90% | pest or weed control at 125 g/ha [2, 20]: 100% | pest or weed control at 250 g/ha [2, 20]: 100% | pest or weed control at 500 g/ha [2, 20]: 100% | pest or weed control at 62 g/ha [3, 21]: 65% | pest or weed control at 125 g/ha [3, 21]: 80% | pest or weed control at 250 g/ha [3, 22]: 90% | pest or weed control at 500 g/ha [3, 22]: 90% | pest or weed control at 62 g/ha [3, 23]: 0% | pest or weed control at 125 g/ha [3, 24]: 60% | pest or weed control at 250 g/ha [3, 24]: 90% | pest or weed control at 500 g/ha [3, 24]: 95% | Plant response rating, Sedge, Umbrella ([4]; 62 g ai/ha): 0 | Plant response rating, Sedge, Umbrella ([4]; 250 g ai/ha): 0 | Plant response rating, Sedge, Umbrella ([4]; 500 g ai/ha): 0 | Plant response rating, Barnyardgrass ([5]; 62 g ai/ha, scale 0 to 100): 0 | Plant response rating, Barnyardgrass ([5]; 125 g ai/ha, scale 0 to 100): 0 | Plant response rating, Barnyardgrass ([5]; 250 g ai/ha, scale 0 to 100): 15 | Plant response rating, Barnyardgrass ([5]; 500 g ai/ha, scale 0 to 100 (0 no effect, 100 complete control)): 25 | Plant response rating, Ducksalad ([6]; 62 g ai/ha): 0 | Plant response rating, Ducksalad ([6]; 250 g ai/ha): 0 | Plant response rating, Ducksalad ([6]; 500 g ai/ha): 0 | Plant response rating, Rice ([7]; 62 g ai/ha): 0 | Plant response rating, Rice ([7]; 125 g ai/ha): 0 | Plant response rating, Rice ([7]; 250 g ai/ha): 0 | Plant response rating, Rice ([7]; 500 g ai/ha): 0

melting point: 157 to 158 °C (dec.)
Structure (SMILES): Nc1nc(-c2ccc(Br)cc2)nc(C(=O)O)c1Cl [Compound 95, 6-amino-2-(4-bromophenyl)-5-chloro-4-pyrimidinecarboxylic acid]
Corn plant response rating (crop injury, 0 = no effect, 100 = complete kill) at 8 g/ha [1, 14]: 20% | Corn plant response rating (crop injury, 0 = no effect, 100 = complete kill) at 16 g/ha [1, 25]: 20% | Corn plant response rating (crop injury, 0 = no effect, 100 = complete kill) at 62 g/ha [1, 25]: 35% | Corn plant response rating (crop injury, 0 = no effect, 100 = complete kill) at 8 g/ha ([1]; pre-emergence, Preemergence, scale 0 to 100 (0 no effect, 100 complete control)): 0% | Corn plant response rating (crop injury, 0 = no effect, 100 = complete kill) at 16 g/ha [1, 15]: 0% | Corn plant response rating (crop injury, 0 = no effect, 100 = complete kill) at 31 g/ha ([1]; pre-emergence, Preemergence, 31 g ai/ha, scale 0 to 100, 0 no effect, 100 complete control, read-out: Plant response rating, Corn): 0% | Corn plant response rating (crop injury, 0 = no effect, 100 = complete kill) at 62 g/ha [1, 15]: 5% | pest or weed control at 8 g/ha [2, 18]: 60% | pest or weed control at 31 g/ha [2, 26]: 80% | pest or weed control at 62 g/ha [2, 26]: 95% | pest or weed control at 8 g/ha ([2]; pre-emergence, Preemergence, scale 0 to 100 (0 no effect, 100 complete control), read-out: Plant response rating, Morningglory): 0% | pest or weed control at 16 g/ha ([2]; pre-emergence, Preemergence, 16 g ai/ha, scale 0 to 100, 0 no effect, 100 complete control, read-out: Plant response rating, Morningglory): 0% | pest or weed control at 31 g/ha [2, 19]: 10% | pest or weed control at 62 g/ha [2, 19]: 60% | pest or weed control at 8 g/ha [3, 22]: 75% | pest or weed control at 16 g/ha [3, 27]: 75% | pest or weed control at 31 g/ha [3, 27]: 75% | pest or weed control at 62 g/ha [3, 27]: 80% | pest or weed control at 8 g/ha ([3]; pre-emergence, Preemergence, scale 0 to 100 (0 no effect, 100 complete control), read-out: Plant response rating, Cupgrass, Woolly): 0% | pest or weed control at 16 g/ha [3, 23]: 0% | pest or weed control at 31 g/ha [3, 23]: 0% | pest or weed control at 62 g/ha [3, 23]: 5% | Sedge, Umbrella plant response rating ([8]; 32 g ai/ha): 95 | Sedge, Umbrella plant response rating ([8]; 64 g ai/ha): 95 | Sedge, Umbrella plant response rating ([8]; 125 g ai/ha): 95 | Sedge, Umbrella plant response rating ([8]; 250 g ai/ha): 95 | Plant response rating, Sedge, Umbrella ([8]; 16 g ai/ha): 0 | Watergrass, Early plant response rating ([9]; 32 g ai/ha): 0 | Watergrass, Early plant response rating ([9]; 64 g ai/ha): 0 | Watergrass, Early plant response rating ([9]; 125 g ai/ha): 0 | Watergrass, Early plant response rating ([9]; 250 g ai/ha): 0 | Plant response rating, Watergrass, Early ([9]; 16 g ai/ha): 0 | Rice, Water Seeded plant response rating ([10]; 32 g ai/ha): 0 | Rice, Water Seeded plant response rating ([10]; 64 g ai/ha): 0 | Rice, Water Seeded plant response rating ([10]; 125 g ai/ha): 0 | Rice, Water Seeded plant response rating ([10]; 250 g ai/ha): 15 | Plant response rating, Rice, Water Seeded ([10]; 16 g ai/ha): 0 | Junglerice plant response rating ([11]; 32 g ai/ha): 0 | Junglerice plant response rating ([11]; 64 g ai/ha): 0 | Junglerice plant response rating ([11]; 125 g ai/ha): 0 | Junglerice plant response rating ([11]; 250 g ai/ha): 0 | Plant response rating, Junglerice ([11]; 16 g ai/ha): 0 | Ducksalad plant response rating ([12]; 32 g ai/ha): 100 | Ducksalad plant response rating ([12]; 64 g ai/ha): 100 | Ducksalad plant response rating ([12]; 125 g ai/ha): 100 | Ducksalad plant response rating ([12]; 250 g ai/ha): 100 | Plant response rating, Ducksalad ([12]; 16 g ai/ha): 100
